Data taken from US20220251105A1, “METHODS OF TREATING A MK2-MEDIATED DISORDER” (Celgene CAR LLC, priority 2019, published 2022).
Read-outs that look alike come from different tables or passages of the source.

Experiments:
[1] = plasma exposure in HLA-B27/Huβ2m rats; details: HLA B27 Tg rat, 20 mg/kg
From the text: In each disease model, steady-state pharmacokinetics were characterized.

[2] = single intravenous dose pharmacokinetics in cynomolgus monkeys; format: in vivo; details: cynomolgus monkey, plasma; for Vd: read-out: Vdss;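 for AUCLST: AUC to the last measurable time point (AUClast)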
Protocol: (§1) In vitro and in vivo studies were conducted to characterize the absorption, PK, distribution, and metabolism of Compound 1. […] Additionally, plasma samples from single dose PK studies in mice and monkeys were evaluated for circulating metabolites.

[3] = single oral dose pharmacokinetics in Sprague Dawley rats; format: in vivo; details: rat
Protocol: as §1

[4] = toxicokinetics, 7-day monkey study; format: in vivo; details: cynomolgus monkey, plasma, oral, monkeys, read-out: Mean Day 7 AUC0-last
Protocol: In cynomolgus monkeys, a 7-day repeat dose toxicity study was conducted with doses up to 250 mg/kg/day. […] To aid in dose selection for a subsequent pivotal study, an additional study was conducted to determine the maximum feasible dose under optimal feeding conditions in cynomolgus monkeys. […] Dosing monkeys in the fasted state prior to dosing yielded more consistently higher exposures. Therefore, a dose of 375 mg/kg in 0.5% methyl cellulose (400 cps) and 0.1% Tween 80 administered to fasted monkeys was selected for the 14-day repeat-dose phase of the study, and was considered the maximum feasible dose.

[5] = 28- and 91-day toxicology studies in cynomolgus monkeys; details: cynomolgus monkey, in vivo, oral
[6] = tested on: proinflammatory cytokines (TNF-α) in LPS-stimulated whole blood; assay: Phase 1 study, whole-blood ex vivo assay with LPS stimulation; format: cell-based, human
Crl:CD1 (ICR) mice = assay: 28-day repeat-dose oral toxicity study in mice; details: mouse, in vivo
From the text: (§2) Additionally, toxicokinetic animals received the vehicle or compound in the same manner and dose levels as the main study groups.

[7] = 28-day repeat-dose oral toxicity study in mice; details: both sexes, Crl:CD1 (ICR), mouse, in vivo; mice, 28 days
From the text: as §2

[8] = toxicokinetics, exploratory 14-day mouse study; format: in vivo; details: both sexes, CD-1, mouse, plasma, po, mice, read-out: Mean Day 14 AUC0-last
Protocol: A single oral dose study with a 14-day repeat-dose phase was conducted in male and female mice. 250 mg/kg was selected as the highest dose for the repeat dose portion of the study.

[9] = exposure in 91-day mouse toxicology study; details: for AUC: mouse, plasma
bone resorption activity = bone resorption activity in vitro; format: cell-based
[10] = physical form (amorphous/crystalline) in dose formulation vehicle; format: physicochemical
From the text: Additionally, the vehicle used in the pivotal studies was changed from 0.5% methyl cellulose (400 cps) and 0.1% Tween 80 to distilled water.

[11] = tested on: Imiquimod ear swelling in BALB/c mice; assay: imiquimod-induced ear swelling model; format: in vivo, mouse
CAIA in BALB/c mice = assay: collagen antibody-induced arthritis (CAIA) model; format: in vivo, mouse
[12] = toxicokinetics, 28-day monkey study; format: in vivo, cynomolgus monkey; details: for Cmax / AUC: po; for dose proportionality of systemic exposure (AUCLST): monkeys
[13] = cynomolgus, monkey, female, single IV 5 mg/kg
[14] = cynomolgus, monkey, male, single IV 5 mg/kg
[15] = Sprague Dawley, plasma, female, single oral 30 mg/kg
[16] = Sprague Dawley, plasma, male, single oral 30 mg/kg

CCOCc1cnc(Cl)nc1Oc1ccc2c(ccc3sc4c(c32)NC[C@@H](C)NC4=O)n1 [Compound 1]
AUC [1]: 2820 ng·h/mL | half-life ([2]; both sexes, iv, 5 mg/kg, monkeys, read-out: terminal half-life): ≤ 60 min | AUC [2, 13]: 2200 ng·h/mL | AUC(0-inf) [2, 13]: 2210 ng·h/mL | clearance [2, 13]: 38.3 mL/min/kg | Vd [2, 13]: 1.93 L/kg | half-life ([2]; cynomolgus, monkey, female, single IV 5 mg/kg, read-out: t1/2,z (converted)): 58.8 min | AUC [2, 14]: 1920 ng·h/mL | AUC(0-inf) [2, 14]: 1920 ng·h/mL | clearance [2, 14]: 43.5 mL/min/kg | Vd [2, 14]: 1.81 L/kg | half-life ([2]; cynomolgus, monkey, male, single IV 5 mg/kg, read-out: t1/2,z (converted)): 57 min | AUC [3, 15]: 5940 ng·h/mL | AUC(0-inf) [3, 15]: 6610 ng·h/mL | Cmax [3, 15]: 4960 ng/mL | Tmax ([3]; Sprague Dawley, plasma, female, single oral 30 mg/kg, median, read-out: tmax): 30 min | AUC [3, 16]: 1190 ng·h/mL | AUC(0-inf) [3, 16]: 1290 ng·h/mL | Cmax [3, 16]: 1180 ng/mL | Tmax ([3]; Sprague Dawley, plasma, male, single oral 30 mg/kg, median, read-out: tmax): 15 min | Tmax ([3]; both sexes, Sprague Dawley, plasma, 30 mg/kg, rats, oral dosing, read-out: time to maximum plasma concentration (tmax)): 15 to 60 min | bioavailability ([3]; both sexes, Sprague Dawley, plasma, po, rats, doses in the range 15 to 375 mg/kg): 8 to 28% | F ([3]; female, single oral 30 mg/kg): 28% | F ([3]; male, single oral 30 mg/kg): 11% | AUC(0-t) ([4]; 25 mg/kg/day): 1090 ng·h/mL | AUC(0-t) ([4]; 75 mg/kg/day): 1170 ng·h/mL | AUC(0-t) ([4]; 250 mg/kg/day): 9440 ng·h/mL | NOAEL [5]: 375 mg/kg/day | TNF inhibition in the ex vivo assay ([6]; Part 1, single oral doses 10 mg to 400 mg, by 4 hours, LPS 24 hours): dose dependent increase | TNF-α in the ex vivo assay ([6]; Part 2, 14 days of dosing, doses greater than 10 mg, maximal inhibition at 150 mg): sustained reductions in TNF-α | compound-related findings (Crl:CD1 (ICR) mice; 15 mg/kg/day): no compound-related findings | microscopic finding, skeletal muscle (Crl:CD1 (ICR) mice; 100 mg/kg/day): Minimal to mild myofiber degeneration in the skeletal muscle | adverse effect, heart (Crl:CD1 (ICR) mice; 750 mg/kg/day): Minimal to mild myofiber degeneration in the heart | change in mean absolute reticulocyte count (Crl:CD1 (ICR) mice; 750 mg/kg/day): −29% | change in mean platelet count (Crl:CD1 (ICR) mice; 750 mg/kg/day): +96% | leukocyte counts (non-adverse) (Crl:CD1 (ICR) mice; 750 mg/kg/day): Minimal to mild decreases in lymphocyte counts and inconsistent decreases in most other leukocyte subtypes | microscopic finding, duodenum (Crl:CD1 (ICR) mice; 750 mg/kg/day): Minimal to mild erosion/ulceration of the proximal duodenum | microscopic finding, liver (Crl:CD1 (ICR) mice; 750 mg/kg/day): Centrilobular hepatocellular hypertrophy (typically of minimal severity) | microscopic finding, thymus (Crl:CD1 (ICR) mice; 750 mg/kg/day): Minimal to mild thymic cortical lymphoid depletion | organ weights (non-adverse) (Crl:CD1 (ICR) mice; 750 mg/kg/day): Increased liver and heart weights | NOAEL at 28 days [7]: 100 mg/kg/day | AUC(0-t) ([8]; 15 mg/kg/day): 4820 ng·h/mL | AUC(0-t) ([8]; 75 mg/kg/day): 16600 ng·h/mL | AUC(0-t) ([8]; 250 mg/kg/day): 35100 ng·h/mL | margin of human 150 mg exposure below the mouse NOAEL ([9]; mouse NOAEL AUCLST vs human 150 mg AUCLST): 21 fold | AUC ([9]; 100 mg/kg/day): 28800 ng·h/mL | AUC ([9]; 750 mg/kg/day): 144000 ng·h/mL | bone resorption activity (bone resorption activity): reduce bone resorption activity in vitro | physical form after dose formulation preparation ([10]; Tween 80 present in the vehicle): changed from an amorphous to a crystalline form, beginning within the first hour | time remaining in the amorphous form ([10]; prepared in distilled water): at least 24 hours | % Inhibition by ear thickness clinical score ([11]; 3 mg/kg, from area under the ear thickness-time curve): 57% by ear | Minimally Efficacious Dose ([11]; endpoint ear thickness): 3 mg/kg | % Inhibition, paw swelling (CAIA in BALB/c mice; 3 mg/kg, last day of dosing): 89.7% paw | Minimally Efficacious Dose (CAIA in BALB/c mice; endpoint paw swelling): 3 mg/kg | AUC(0-t) ([12]; cynomolgus monkey, plasma, oral, female monkeys, read-out: AUC0-24, steady state exposure at the NOAEL): ~7840 ng·h/mL | Cmax ([12]; cynomolgus monkey, plasma, monkey, Study Day 1, male, 375 mg/kg/day): 1960 ng/mL | Cmax ([12]; cynomolgus, cynomolgus monkey, plasma, monkey, Study Day 21, female, 375 mg/kg/day): 810 ng/mL | Cmax ([12]; cynomolgus, cynomolgus monkey, plasma, monkey, Study Day 21, male, 375 mg/kg/day): 2340 ng/mL | Cmax ([12]; female, cynomolgus monkey, plasma, 15 mg/kg/day, monkey, Study Day 1, female, 15 mg/kg/day (so in the source)): 862 ng/mL | AUC ([12]; female, cynomolgus monkey, plasma, 15 mg/kg/day, monkey, Study Day 1, female, 15 mg/kg/day (so in the source), read-out: AUCLST): 3090 ng·h/mL | Cmax ([12]; female, cynomolgus monkey, plasma, 150 mg/kg/day, monkey, Study Day 1, female, 150 mg/kg/day): 1390 ng/mL | AUC ([12]; female, cynomolgus monkey, plasma, 150 mg/kg/day, monkey, Study Day 1, female, 150 mg/kg/day, read-out: AUCLST): 6330 ng·h/mL | AUC ([12]; female, cynomolgus monkey, plasma, 150 mg/kg/day, monkey, Study Day 21, female, 150 mg/kg/day, read-out: AUCLST): 7840 ng·h/mL | AUC ([12]; female, cynomolgus monkey, plasma, 375 mg/kg/day, monkey, Study Day 1, female, 375 mg/kg/day, read-out: AUCLST): 16700 ng·h/mL | AUC ([12]; female, cynomolgus monkey, plasma, 375 mg/kg/day, monkey, Study Day 21, female, 375 mg/kg/day, read-out: AUCLST): 4220 ng·h/mL | Cmax ([12]; female, cynomolgus, cynomolgus monkey, plasma, 15 mg/kg/day, monkey, Study Day 21, female, 15 mg/kg/day (so in the source)): 818 ng/mL | AUC ([12]; female, cynomolgus, cynomolgus monkey, plasma, 15 mg/kg/day, monkey, Study Day 21, female, 15 mg/kg/day (so in the source), read-out: AUCLST): 2460 ng·h/mL | Cmax ([12]; female, cynomolgus, cynomolgus monkey, plasma, 150 mg/kg/day, monkey, Study Day 21, female, 150 mg/kg/day): 1620 ng/mL | Cmax ([12]; male, cynomolgus monkey, plasma, 15 mg/kg/day, monkey, Study Day 1, male, 15 mg/kg/day (so in the source)): 623 ng/mL | AUC ([12]; male, cynomolgus monkey, plasma, 15 mg/kg/day, monkey, Study Day 1, male, 15 mg/kg/day (so in the source), read-out: AUCLST): 1750 ng·h/mL | Cmax ([12]; male, cynomolgus monkey, plasma, 15 mg/kg/day, monkey, Study Day 21, male, 15 mg/kg/day (so in the source)): 465 ng/mL | Cmax ([12]; male, cynomolgus monkey, plasma, 150 mg/kg/day, monkey, Study Day 1, male, 150 mg/kg/day): 1240 ng/mL | AUC ([12]; male, cynomolgus monkey, plasma, 150 mg/kg/day, monkey, Study Day 1, male, 150 mg/kg/day, read-out: AUCLST): 5840 ng·h/mL | Cmax ([12]; male, cynomolgus monkey, plasma, 150 mg/kg/day, monkey, Study Day 21, male, 150 mg/kg/day): 674 ng/mL | AUC ([12]; male, cynomolgus monkey, plasma, 375 mg/kg/day, male monkeys (375 mg/kg/day), steady-state, read-out: NOAEL with respect to AUCLST): 8790 ng·h/mL | AUC ([12]; male, cynomolgus monkey, plasma, 375 mg/kg/day, monkey, Study Day 1, male, 375 mg/kg/day, read-out: AUCLST): 14100 ng·h/mL | AUC ([12]; male, cynomolgus, cynomolgus monkey, plasma, 15 mg/kg/day, monkey, Study Day 21, male, 15 mg/kg/day (so in the source), read-out: AUCLST): 1280 ng·h/mL | AUC ([12]; male, cynomolgus, cynomolgus monkey, plasma, 150 mg/kg/day, monkey, Study Day 21, male, 150 mg/kg/day, read-out: AUCLST): 3950 ng·h/mL | AUC ([12]; male, cynomolgus, cynomolgus monkey, plasma, 375 mg/kg/day, monkey, Study Day 21, male, 375 mg/kg/day, read-out: AUCLST): 8790 ng·h/mL | dose proportionality of systemic exposure (AUCLST) ([12]; Day 1, 50 to 375 mg/kg/day): approximately dose-proportional manner | dose proportionality of systemic exposure (AUCLST) ([12]; Day 20, 50 to 375 mg/kg/day): less than dose-proportional manner
